Data from ChEMBL document CHEMBL5724914, “Linking interpersonal differences in gut microbiota composition and drug biotransformation activity” (2024).

Tests used:
[1] = human gut metagenome, 24 h, 2 µM
[2] = human gut metagenome, 24 h, 2 µM; remark: listed apart in the source
[3] = human gut metagenome, 24 h, 2 µM; remark: listed apart in the source
[4] = (§1) The drug is tested on Z-008 corresponding to metagenome with ENA study accession number: PRJEB37062 and ENA sample accession number: ERS12561808 for biotransformation under anaerobic condition. The drug concentrations were measured over 9 timepoints collected between 0 and 24 hours of incubation by liquid-chromatography-coupled mass spectrometry (LC–MS); conditions: 2 µM
[5] = human gut metagenome, 24 h, 2 µM; remark: listed apart in the source
[6] = (§2) The drug is tested on Z-013 corresponding to rabbit gut metagenome with ENA study accession number: PRJEB37062 and ENA sample accession number: ERS12561813 for biotransformation under anaerobic condition. The drug concentrations were measured over 9 timepoints collected between 0 and 24 hours of incubation by liquid-chromatography-coupled mass spectrometry (LC–MS); conditions: 2 µM
[7] = as §1, with “Z-021” for “Z-008”, “ERS12561820” for “ERS12561808”; conditions: 2 µM
[8] = as §2, with “Z-018” for “Z-013”, “pig” for “rabbit”, “ERS12561817” for “ERS12561813”; conditions: 2 µM
[9] = human gut metagenome, 24 h, 2 µM; remark: listed apart in the source
[10] = human gut metagenome, 24 h, 2 µM; remark: listed apart in the source
[11] = as §2, with “WLS-007” for “Z-013”, “human” for “rabbit”, “ERS12561742” for “ERS12561813”; conditions: 2 µM
[12] = as §2, with “Z-006” for “Z-013”, “mouse” for “rabbit”, “ERS12561806” for “ERS12561813”; conditions: 2 µM
[13] = as §2, with “WLS-077” for “Z-013”, “human” for “rabbit”, “ERS12561750” for “ERS12561813”; conditions: 2 µM
[14] = as §1, with “Z-012” for “Z-008”, “ERS12561812” for “ERS12561808”; conditions: 2 µM
[15] = human gut metagenome, 24 h, 2 µM; remark: listed apart in the source
[16] = as §2, with “Z-017” for “Z-013”, “mouse” for “rabbit”, “ERS12561816” for “ERS12561813”; conditions: 2 µM
[17] = human gut metagenome, 24 h, 2 µM; remark: listed apart in the source
[18] = as §2, with “WLS-098” for “Z-013”, “human” for “rabbit”, “ERS12561754” for “ERS12561813”; conditions: 2 µM
[19] = human gut metagenome, 24 h, 2 µM; remark: listed apart in the source
[20] = as §2, with “Z-025” for “Z-013”, “ERS12561824” for “ERS12561813”; conditions: 2 µM
Also: call rule not given here.

Row | SMILES | Bacterial Biotransformation [1] | Bacterial Biotransformation [2] | Bacterial Biotransformation [3] | Bacterial Biotransformation [4] | Bacterial Biotransformation [5] | Bacterial Biotransformation [6] | Bacterial Biotransformation [7] | Bacterial Biotransformation [8] | Bacterial Biotransformation [9] | Bacterial Biotransformation [10] | Bacterial Biotransformation [11] | Bacterial Biotransformation [12] | Bacterial Biotransformation [13] | Bacterial Biotransformation [14] | Bacterial Biotransformation [15] | Bacterial Biotransformation [16] | Bacterial Biotransformation [17] | Bacterial Biotransformation [18] | Bacterial Biotransformation [19] | Bacterial Biotransformation [20]
1 | CCC(COC(=O)c1cc(OC)c(OC)c(OC)c1)(c1ccccc1)N(C)C.O=C(O)/C=C\C(=O)O (stereo not given) | Compound NOT metabolized | Compound NOT metabolized | Compound metabolized | Compound NOT metabolized | Compound NOT metabolized | Compound NOT metabolized | Compound metabolized | Compound metabolized | Compound NOT metabolized | Compound metabolized | Compound NOT metabolized | Compound NOT metabolized | Compound NOT metabolized | Compound NOT metabolized | Compound NOT metabolized | Compound NOT metabolized | Compound NOT metabolized | Compound NOT metabolized | Compound metabolized | Compound NOT metabolized
2 | CC(Oc1c(Cl)cccc1Cl)C1=NCCN1 (stereo not given) [LOFEXIDINE] | Compound NOT metabolized | Compound NOT metabolized | Compound NOT metabolized | Compound NOT metabolized | Compound NOT metabolized | Compound NOT metabolized | Compound NOT metabolized | Compound NOT metabolized | Compound NOT metabolized | Compound NOT metabolized | Compound metabolized | Compound NOT metabolized | Compound NOT metabolized | Compound NOT metabolized | Compound metabolized | Compound NOT metabolized | Compound NOT metabolized | Compound metabolized | Compound metabolized | Compound NOT metabolized
3 | COC(=O)Nc1nc2ccc(C(=O)c3ccccc3)cc2[nH]1 [MEBENDAZOLE] | Compound metabolized | Compound NOT metabolized | Compound metabolized | Compound metabolized | Compound metabolized | Compound metabolized | Compound metabolized | Compound metabolized | Compound metabolized | Compound metabolized | Compound metabolized | Compound metabolized | Compound metabolized | Compound metabolized | Compound metabolized | Compound NOT metabolized | Compound metabolized | Compound metabolized | Compound metabolized | Compound metabolized
4 | COC(=O)[C@H]1[C@H]2C[C@@H]3c4[nH]c5cc(OC)ccc5c4CCN3C[C@H]2C[C@@H](OC(=O)c2cc(OC)c(OC)c(OC)c2)[C@@H]1OC [RESERPINE] | Compound NOT metabolized | Compound metabolized | Compound metabolized | Compound NOT metabolized | Compound NOT metabolized | Compound NOT metabolized | Compound metabolized | Compound NOT metabolized | Compound NOT metabolized | Compound metabolized | Compound NOT metabolized | Compound NOT metabolized | Compound NOT metabolized | Compound NOT metabolized | Compound NOT metabolized | Compound NOT metabolized | Compound metabolized | Compound metabolized | Compound NOT metabolized | Compound NOT metabolized
